Measurements published in ChEMBL document CHEMBL1152576, “E-Combretastatin and E-resveratrol structural modifications: antimicrobial and cancer cell growth inhibitory beta-E-nitrostyrenes” (Bioorg Med Chem, 2009).
≈ marks a conversion by molar mass, not a printed value. Calls of active or inactive are those of the source. The rule behind the calls is not given here.

Experiments:
[1] = tested on: MCF7; assay: Cytotoxicity against human MCF7 cells after 48 hrs by sulforhodamine B assay; format: functional
[2] = Inhibition of tubulin polymerization
[3] = tested on: OVCAR-3; assay: Cytotoxicity against human OVCAR-3 cells after 48 hrs by sulforhodamine B assay; format: functional
[4] = tested on: A498; assay: Cytotoxicity against human A498 cells after 48 hrs by sulforhodamine B assay; format: functional
[5] = tested on: DU-145; assay: Cytotoxicity against human DU145 cells after 48 hrs by sulforhodamine B assay; format: functional
[6] = tested on: P388; assay: Cytotoxicity against mouse P388 cells after 48 hrs by sulforhodamine B assay; format: functional; conditions: P388, 48 h, read-out: ED50 (the source's name)
[7] = tested on: SK-MEL-5; assay: Cytotoxicity against human SK-MEL-5 cells after 48 hrs by sulforhodamine B assay; format: functional
[8] = tested on: KM-20L2; assay: Cytotoxicity against human KM20L2 cells after 48 hrs by sulforhodamine B assay; format: functional
[9] = tested on: NCI-H460; assay: Cytotoxicity against human NCI-H460 cells after 48 hrs by sulforhodamine B assay; format: functional; conditions: NCI-H460, 48 h
[10] = tested on: BXPC-3; assay: Cytotoxicity against human BxPC3 cells after 48 hrs by sulforhodamine B assay; format: functional
[11] = tested on: SF-295; assay: Cytotoxicity against human SF295 cells after 48 hrs by sulforhodamine B assay; format: functional
[12] = tested on: SF-268; assay: Cytotoxicity against human SF268 cells after 48 hrs by sulforhodamine B assay; format: functional
[13] = tested on: Staphylococcus aureus; assay: Antimicrobial activity against Staphylococcus aureus ATCC 29213 assessed clear zone in inhibition per disk by CLSI disk diffusion susceptibility assay; format: functional
[14] = tested on: Micrococcus luteus; assay: Antimicrobial activity against Micrococcus luteus Presque Isle 456 assessed clear zone in inhibition per disk by CLSI disk diffusion susceptibility assay; format: functional
[15] = tested on: Enterobacter cloacae; assay: Antimicrobial activity against Enterobacter cloacae ATCC 13047 assessed clear zone in inhibition per disk by CLSI disk diffusion susceptibility assay; format: functional
[16] = tested on: Neisseria gonorrhoeae; assay: Antimicrobial activity against Neisseria gonorrhoeae ATCC 49226 assessed clear zone of inhibition measured per disk by CLSI disk diffusion susceptibility assay; format: functional
[17] = tested on: Enterococcus faecalis; assay: Antimicrobial activity against Enterococcus faecalis ATCC 29212 assessed clear zone in inhibition per disk by CLSI disk diffusion susceptibility assay; format: functional
[18] = tested on: Streptococcus pneumoniae; assay: Antimicrobial activity against Streptococcus pneumoniae ATCC 6303 assessed clear zone in inhibition per disk by CLSI disk diffusion susceptibility assay; format: functional
[19] = tested on: Cryptococcus neoformans; assay: Antimicrobial activity against Cryptococcus neoformans ATCC 90112 assessed clear zone in inhibition per disk by CLSI disk diffusion susceptibility assay; format: functional
[20] = tested on: Candida albicans; assay: Antimicrobial activity against Candida albicans ATCC 90028 assessed clear zone in inhibition per disk by CLSI disk diffusion susceptibility assay; format: functional
[21] = tested on: Escherichia coli; assay: Antimicrobial activity against Escherichia coli ATCC 25922 assessed clear zone in inhibition per disk by CLSI disk diffusion susceptibility assay; format: functional
[22] = tested on: Stenotrophomonas maltophilia; assay: Antimicrobial activity against Stenotrophomonas maltophilia ATCC 13637 assessed clear zone in inhibition per disk by CLSI disk diffusion susceptibility assay; format: functional

| SMILES | IC50 [2] | GI50 [3] | GI50 [4] | GI50 ([5]; DU-145, 48 h) | EC50 [6] | GI50 [7] | GI50 ([8]; KM-20L2, 48 h) | GI50 [9] | GI50 ([10]; BXPC-3, 48 h) | GI50 [11] | MIC [13] | MIC [14] | MIC [15] | MIC [16] | MIC [17] | MIC [18] | MIC [19] | MIC [20] | MIC [21] | MIC [22] | other results |
| --- | --- | --- | --- | --- | --- | --- | --- | --- | --- | --- | --- | --- | --- | --- | --- | --- | --- | --- | --- | --- | --- |
| COc1ccc(/C=C\c2cc(OC)c(OC)c(OC)c2)cc1O [COMBRETASTATIN A4] | 2.1 µM | inactive | inactive | 0.0008 µg/mL (≈ 0.00253 µM) | 0.03 µg/mL (≈ 0.0948 µM) | inactive | 0.34 µg/mL (≈ 1.07 µM) | 0.0006 µg/mL (≈ 0.0019 µM) | 0.39 µg/mL (≈ 1.23 µM) | inactive | – | – | – | – | – | – | – | – | – | – | GI50 [1]: inactive |
| COc1ccc(/C=C/c2cc(OC)c(OC)c(OC)c2)cc1O [E-COMBRETASTATIN A-4] | 33 µM | inactive | inactive | 0.037 µg/mL (≈ 0.117 µM) | 0.28 µg/mL (≈ 0.885 µM) | inactive | – | 0.038 µg/mL (≈ 0.12 µM) | 3.9 µg/mL (≈ 12.3 µM) | inactive | – | – | – | – | – | – | – | – | – | – | GI50 [12]: inactive; GI50 [1]: inactive; GI50 [8]: inactive |
| O=[N+]([O-])/C=C/c1ccc(OP(=O)([O-])[O-])cc1.[Na+].[Na+] | > 40 µM | inactive | inactive | 57.8 µg/mL | 47.8 µg/mL | inactive | > 10 µg/mL | > 10 µg/mL | > 10 µg/mL | inactive | >100 µg | >100 µg | >100 µg | >100 µg | >100 µg | >100 µg | >100 µg | >100 µg | >100 µg | >100 µg | GI50 ([12]; SF-268, 48 h): > 10 µg/mL; GI50 ([1]; MCF7, 48 h): > 10 µg/mL |
| COc1ccc(/C=C/[N+](=O)[O-])cc1OP(=O)([O-])[O-].[Na+].[Na+] | 18 µM | inactive | inactive | 4 µg/mL | 5.7 µg/mL | inactive | > 10 µg/mL | 5.8 µg/mL | > 10 µg/mL | inactive | >100 µg | >100 µg | >100 µg | 50 µg | >100 µg | >100 µg | >100 µg | >100 µg | >100 µg | >100 µg | GI50 ([12]; SF-268, 48 h): 4.2 µg/mL; GI50 ([1]; MCF7, 48 h): 4.3 µg/mL |
| O=[N+]([O-])/C=C/c1ccc(OP(=O)(OCc2ccccc2)OCc2ccccc2)cc1 | 10 µM | inactive | inactive | > 10 µg/mL | 7 µg/mL (≈ 16.5 µM) | inactive | > 10 µg/mL | > 10 µg/mL | > 10 µg/mL | inactive | 3.12 µg | 6.25 µg | >100 µg | 0.78 µg | 6.25 µg | >100 µg | 25 µg | >100 µg | >100 µg | >100 µg | GI50 ([12]; SF-268, 48 h): > 10 µg/mL; GI50 ([1]; MCF7, 48 h): > 10 µg/mL |
| COc1cc(/C=C/[N+](=O)[O-])cc(O[Si](C)(C)C(C)(C)C)c1OC | 12 µM | – | inactive | > 10 µg/mL | 32.6 µg/mL (≈ 96 µM) | inactive | > 10 µg/mL | > 10 µg/mL | > 10 µg/mL | – | 3.12 µg | 1.56 µg | >100 µg | 3.12 µg | 3.12 µg | 3.12 µg | 25 µg | >100 µg | >100 µg | >100 µg | GI50 [12]: inactive; GI50 [1]: inactive; GI50 ([3]; OVCAR-3, 48 h): > 10 µg/mL; GI50 ([11]; SF-295, 48 h): > 10 µg/mL |
| CCOc1ccc(/C=C/[N+](=O)[O-])cc1 | 5.5 µM | inactive | inactive | 2.2 µg/mL (≈ 11.4 µM) | 3.8 µg/mL (≈ 19.7 µM) | inactive | 2.4 µg/mL (≈ 12.4 µM) | 1.9 µg/mL (≈ 9.83 µM) | 1.2 µg/mL (≈ 6.21 µM) | inactive | 25 µg | 50 µg | >100 µg | 0.78 µg | 50 µg | 12.5 µg | 1.56 µg | 3.12 µg | >100 µg | >100 µg | GI50 ([12]; SF-268, 48 h): 1.8 µg/mL (≈ 9.32 µM); GI50 ([1]; MCF7, 48 h): 1.1 µg/mL (≈ 5.69 µM) |
| Oc1ccc(/C=C\c2cc(O)cc(O)c2)cc1 [CIS-RESVERATROL] | – | inactive | inactive | – | – | inactive | 22 µg/mL (≈ 96.4 µM) | – | – | inactive | – | – | – | – | – | – | – | – | – | – | GI50 ([12]; SF-268, 48 h): 5 µg/mL (≈ 21.9 µM) |
| COc1ccc(/C=C/[N+](=O)[O-])cc1OP(=O)(OCc1ccccc1)OCc1ccccc1 | 10 µM | – | inactive | > 10 µg/mL | 2.2 µg/mL (≈ 4.83 µM) | inactive | > 10 µg/mL | > 10 µg/mL | > 10 µg/mL | – | 3.12 µg | 3.12 µg | >100 µg | 0.78 µg | 6.25 µg | >100 µg | >100 µg | >100 µg | >100 µg | >100 µg | GI50 [12]: inactive; GI50 [1]: inactive; GI50 ([3]; OVCAR-3, 48 h): > 10 µg/mL; GI50 ([11]; SF-295, 48 h): > 10 µg/mL |
| Oc1ccc(/C=C/c2cc(O)cc(O)c2)cc1 [RESVERATROL] | > 40 µM | inactive | inactive | – | – | inactive | – | – | – | inactive | – | – | – | – | – | – | – | – | – | – | – |
| COc1cc(OC)c(/C=C/[N+](=O)[O-])c(OC)c1 | – | – | – | – | 14 µg/mL (≈ 58.5 µM) | – | 0.38 µg/mL (≈ 1.59 µM) | 0.32 µg/mL (≈ 1.34 µM) | – | – | >100 µg | >100 µg | >100 µg | >100 µg | >100 µg | >100 µg | >100 µg | >100 µg | >100 µg | >100 µg | GI50 [12]: inactive; GI50 [1]: inactive; GI50 ([3]; OVCAR-3, 48 h): 0.42 µg/mL (≈ 1.76 µM); GI50 ([4]; A498, 48 h): 0.36 µg/mL (≈ 1.5 µM); GI50 [5]: inactive; GI50 ([7]; SK-MEL-5, 48 h): 0.61 µg/mL (≈ 2.55 µM); GI50 [10]: inactive; GI50 ([11]; SF-295, 48 h): 0.45 µg/mL (≈ 1.88 µM) |
